Source: PubChem BioAssay (NCI)
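These data come from cells grown in 96-well plates and exposed to compound for 48 hours at five concentrations. TGI denotes the concentration required for complete inhibition of growth.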

Key:
Experiment in all cases: NCI tumour cell line growth inhibition, 48 h
[1] = system: SK-MEL-2 melanoma
[2] = system: NCI-H460 lung
[3] = system: NCI-H226 lung
[4] = system: TK-10 renal
[5] = system: MDA-MB-435
[6] = system: SR leukemia
[7] = system: HOP-92 NSCLC
[8] = system: MCF7 breast
[9] = system: MOLT-4 leukemia
[10] = system: SK-OV-3 ovarian
[11] = system: COLO 205 colon
[12] = system: HT29 colon
[13] = system: HOP-62 NSCLC
[14] = system: SNB-19 CNS
[15] = system: OVCAR-4 ovarian
[16] = system: T-47D breast
[17] = system: OVCAR-3 ovarian
[18] = system: MDA-N
[19] = system: NCI/ADR-RES ovarian
[20] = system: ACHN renal
[21] = system: 786-0 renal
[22] = system: BT-549 breast
[23] = system: EKVX NSCLC
[24] = system: A498 renal
[25] = system: RPMI-8226 leukemia
[26] = system: NCI-H23 lung
[27] = system: SF-268 CNS
[28] = system: OVCAR-8 ovarian
[29] = system: DU-145 prostate
[30] = system: SW-620 colon
[31] = system: SK-MEL-5 melanoma
[32] = system: SF-295 CNS
[33] = system: LOX IMVI melanoma
[34] = system: IGROV1 ovarian
[35] = system: A549 NSCLC
[36] = system: U251 CNS
[37] = system: SF-539 CNS
[38] = system: PC-3 prostate
[39] = system: UO-31 renal
[40] = system: SN12C renal
[41] = system: SNB-75 CNS
[42] = system: NCI-H522 lung
[43] = system: CAKI-1 renal
[44] = system: HCT-116 colon
[45] = system: HS 578T breast
[46] = system: SK-MEL-28 melanoma
[47] = system: KM12 colon
[48] = system: UACC-257 melanoma
[49] = system: UACC-62 melanoma
[50] = system: K-562 leukemia
[51] = system: HCC-2998 colon
[52] = system: MALME-3M melanoma
[53] = system: MDA-MB-231 breast
[54] = system: OVCAR-5 ovarian
[55] = system: M14 melanoma
[56] = system: HCT-15 colon
[57] = system: CCRF-CEM leukemia
[58] = system: RXF 393 renal
[59] = system: HL-60(TB) leukemia

**Q.** With `Cc1oc2c(c1C)S(=O)(=O)C(C#N)=CN2` as the compound, how does the TGI [1] read?
**A.** The TGI was > 100 µM.

**Q.** And the TGI [2]?
**A.** Its TGI is > 100 µM.

**Q.** And the TGI [3]?
**A.** The TGI was > 100 µM.

**Q.** And the TGI [4]?
**A.** The TGI was > 100 µM.

**Q.** What about the TGI [5] of the same compound?
**A.** Its TGI is > 100 µM.

**Q.** What about the TGI [6] of the same compound?
**A.** The TGI was > 100 µM.

**Q.** What about the TGI [7] of the same compound?
**A.** The TGI was > 100 µM.

**Q.** What about the TGI [8] of the same compound?
**A.** Its TGI is > 100 µM.

**Q.** What about the TGI [9] of the same compound?
**A.** Its TGI is > 100 µM.

**Q.** And the TGI [10]?
**A.** The TGI was > 100 µM.

**Q.** What about the TGI [11] of the same compound?
**A.** The TGI was > 100 µM.

**Q.** What about the TGI [12] of the same compound?
**A.** The TGI was > 100 µM.

**Q.** And the TGI [13]?
**A.** The TGI was > 100 µM.

**Q.** And the TGI [14]?
**A.** Its TGI is > 100 µM.

**Q.** What about the TGI [15] of the same compound?
**A.** Its TGI is > 100 µM.

**Q.** What about the TGI [16] of the same compound?
**A.** The TGI was > 100 µM.

**Q.** And the TGI [17]?
**A.** The TGI was > 100 µM.

**Q.** And the TGI [18]?
**A.** Its TGI is > 100 µM.

**Q.** What about the TGI [19] of the same compound?
**A.** Its TGI is > 100 µM.

**Q.** And the TGI [20]?
**A.** The TGI was > 100 µM.

**Q.** What about the TGI [21] of the same compound?
**A.** The TGI was > 100 µM.

**Q.** And the TGI [22]?
**A.** The TGI was > 100 µM.

**Q.** What about the TGI [23] of the same compound?
**A.** The TGI was > 100 µM.

**Q.** What about the TGI [24] of the same compound?
**A.** The TGI was > 100 µM.

**Q.** And the TGI [25]?
**A.** The TGI was > 100 µM.

**Q.** What about the TGI [26] of the same compound?
**A.** The TGI was > 100 µM.

**Q.** What about the TGI [27] of the same compound?
**A.** The TGI was > 100 µM.

**Q.** What about the TGI [28] of the same compound?
**A.** Its TGI is > 100 µM.

**Q.** What about the TGI [29] of the same compound?
**A.** The TGI was > 100 µM.

**Q.** What about the TGI [30] of the same compound?
**A.** The TGI was > 100 µM.

**Q.** What about the TGI [31] of the same compound?
**A.** Its TGI is > 100 µM.

**Q.** What about the TGI [32] of the same compound?
**A.** Its TGI is > 100 µM.

**Q.** What about the TGI [33] of the same compound?
**A.** The TGI was > 100 µM.

**Q.** And the TGI [34]?
**A.** The TGI was > 100 µM.

**Q.** What about the TGI [35] of the same compound?
**A.** Its TGI is > 100 µM.

**Q.** What about the TGI [36] of the same compound?
**A.** Its TGI is > 100 µM.

**Q.** And the TGI [37]?
**A.** The TGI was > 100 µM.

**Q.** What about the TGI [38] of the same compound?
**A.** The TGI was > 100 µM.

**Q.** What about the TGI [39] of the same compound?
**A.** The TGI was > 100 µM.

**Q.** What about the TGI [40] of the same compound?
**A.** The TGI was > 100 µM.

**Q.** And the TGI [41]?
**A.** The TGI was > 100 µM.

**Q.** What about the TGI [42] of the same compound?
**A.** The TGI was > 100 µM.

**Q.** What about the TGI [43] of the same compound?
**A.** Its TGI is > 100 µM.

**Q.** And the TGI [44]?
**A.** Its TGI is > 100 µM.

**Q.** And the TGI [45]?
**A.** Its TGI is > 100 µM.

**Q.** What about the TGI [46] of the same compound?
**A.** The TGI was > 100 µM.

**Q.** And the TGI [47]?
**A.** Its TGI is > 100 µM.

**Q.** And the TGI [48]?
**A.** The TGI was > 100 µM.

**Q.** And the TGI [49]?
**A.** The TGI was > 100 µM.

**Q.** What about the TGI [50] of the same compound?
**A.** Its TGI is > 100 µM.

**Q.** What about the TGI [51] of the same compound?
**A.** Its TGI is > 100 µM.

**Q.** What about the TGI [52] of the same compound?
**A.** The TGI was > 100 µM.

**Q.** What about the TGI [53] of the same compound?
**A.** Its TGI is > 100 µM.

**Q.** What about the TGI [54] of the same compound?
**A.** Its TGI is > 100 µM.

**Q.** What about the TGI [55] of the same compound?
**A.** The TGI was > 100 µM.

**Q.** What about the TGI [56] of the same compound?
**A.** The TGI was > 100 µM.

**Q.** What does the source list for `COC(=O)C(CCC1CC(OC)N(C(=O)OCc2ccccc2)C1)N=Cc1ccccc1` (centres undefined)?
**A.** TGI [1]: 78.8 µM; TGI [2]: > 100 µM; TGI [3]: > 100 µM; TGI [4]: > 100 µM; TGI [5]: > 100 µM; TGI [6]: > 100 µM; TGI [7]: > 100 µM; TGI [8]: > 100 µM; TGI [57]: > 100 µM; TGI [9]: > 100 µM; TGI [10]: > 100 µM; TGI [11]: 78.7 µM; TGI [12]: > 100 µM; TGI [13]: > 100 µM; TGI [14]: > 100 µM; TGI [15]: > 100 µM; TGI [16]: > 100 µM; TGI [17]: > 100 µM; TGI [18]: > 100 µM; TGI [19]: > 100 µM; TGI [20]: > 100 µM; TGI [21]: > 100 µM; TGI [22]: > 100 µM; TGI [23]: > 100 µM; TGI [24]: > 100 µM; TGI [25]: 91.7 µM; TGI [26]: > 100 µM; TGI [27]: > 100 µM; TGI [28]: > 100 µM; TGI [29]: > 100 µM; TGI [30]: > 100 µM; TGI [31]: 83.9 µM; TGI [32]: > 100 µM; TGI [33]: > 100 µM; TGI [34]: > 100 µM; TGI [35]: > 100 µM; TGI [36]: > 100 µM; TGI [37]: > 100 µM; TGI [38]: > 100 µM; TGI [39]: > 100 µM; TGI [58]: > 100 µM; TGI [40]: > 100 µM; TGI [41]: > 100 µM; TGI [42]: 72.9 µM; TGI [43]: > 100 µM; TGI [44]: > 100 µM; TGI [45]: > 100 µM; TGI [46]: > 100 µM; TGI [59]: > 100 µM; TGI [47]: > 100 µM; TGI [48]: > 100 µM; TGI [49]: > 100 µM; TGI [50]: > 100 µM; TGI [51]: > 100 µM; TGI [53]: > 100 µM; TGI [54]: > 100 µM; TGI [55]: > 100 µM; TGI [56]: > 100 µM
